Test results published in patent EP0477107B1, “Steroids contained in cyclodextrins” (Laboratoires BESINS ISCOVESCO Société anonyme dite :, priority 1990, dated 1992).
Converted amounts (≈) assume the structure as drawn. Read-outs that look alike come from different tables or passages of the source.

Experiment: Saturation solubility of steroids in water and in aqueous cyclodextrin solutions (25°, 72 h stirring, filtration, assay of supernatant)
Type: physicochemical
Experimental: On réalise des solutions de bétacyclodextrines à différentes concentrations de 0 à 5mM. A ces différentes solutions, on ajoute de la prégnane-5-béta-ol-3alpha-one-20 par pincées et ce jusqu'à apparition d'un précipité. On met sous agitation magnétique à 25° pendant 72 heures en prenant soin de vérifier à intervalles réguliers qu'il y a toujours saturation en stéroïdes. Au bout de 72 heures, on filtre les solutions ainsi réalisées et on dose le surnageant. Les résultats obtenus font l'objet de la courbe de la figure 1.
Excepté la concentration en ladite cyclodextrine qui varie de 0 à 32mM, on procède selon le même protocole qu'à l'exemple 1; les résultats sont illustrés par la courbe de la figure 2.
On procède selon le même protocole qu'à l'exemple 1. Les résultats sont représentés par la courbe de la figure 3.
On travaille selon les mêmes conditions qu'à l'exemple 1. Les résultats obtenus sont schématisés par la courbe de la figure 4.
On suit encore le même protocole qu'à l'exemple 1 sauf en ce que la concentration en bétacyclodextrine varie de 0 à 4mM et les résultats font l'objet de la courbe de la figure 5.
Ici encore on suit le même protocole qu'à l'exemple 1 sauf en ce que la concentration en hydroxypropybéta-cyclodextrine varie de 0 à 32mM et les résultats sont représentés par la courbe de la figure 6.

| Compound | solubility at 72 h (water + betacyclodextrin, read-out: SOLUBILITE EN GRAMMES PAR LITRE dans eau + bétacyclodextrine) [µg/mL] | solubility at 72 h (water + hydroxypropylbetacyclodextrin, optimal solubility read from the curves at the adequate hydroxypropylbétacyclodextrine concentration (up to 32mM), 25°, 72 h, read-out: SOLUBILITE EN GRAMMES PAR LITRE dans eau + hydroxypropylbétacyclodextrine) [µg/mL] | solubility at 72 h (water without cyclodextrin, 25°, 72 h, read-out: SOLUBILITE EN GRAMMES PAR LITRE dans l'eau) [µg/mL] | SOLUBILITE EN GRAMMES PAR LITRE dans eau + bétacyclodextrine (optimal solubility read from the curves at the adequate bétacyclodextrine concentration (0 to 5mM; 0 to 4mM for dihydro-4-progestérone), 25°, 72 h) | SOLUBILITE EN GRAMMES PAR LITRE dans eau + hydroxypropylbétacyclodextrine (optimal solubility read from the curves at the adequate hydroxypropylbétacyclodextrine concentration (up to 32mM), 25°, 72 h) | SOLUBILITE EN GRAMMES PAR LITRE dans l'eau (water without cyclodextrin, 25°, 72 h) |
| --- | --- | --- | --- | --- | --- | --- |
| CC(=O)[C@H]1CC[C@H]2[C@@H]3CC[C@@H]4C[C@H](O)CC[C@]4(C)[C@H]3CC[C@]12C [Prégnanolone, prégnanol-3alpha-one-20] | 440 | 3000 | 5 (≈ 15.7 µM) | – | – | – |
| prégnane-diol-3,20 [Dihydroprogestérone] | – | – | – | 0,06 GRAMMES PAR LITRE | 1,4 GRAMMES PAR LITRE | 0,005 GRAMMES PAR LITRE |
